Laboratory results from PubChem BioAssay (NCI).
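Each compound was tested at five concentrations against cells in 96-well plates for 48 hours. At the GI50, growth is halved. TGI: total growth inhibition.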

Experiments:
Assay in all cases: growth of human tumour cells (NCI), 48 h
A498 renal = system: A498 renal
SK-OV-3 ovarian = system: SK-OV-3 ovarian
MCF7 breast = system: MCF7 breast
LOX IMVI melanoma = system: LOX IMVI melanoma
SK-MEL-5 melanoma = system: SK-MEL-5 melanoma
COLO 205 colon = system: COLO 205 colon
HT29 colon = system: HT29 colon
SF-268 CNS = system: SF-268 CNS
NCI-H460 lung = system: NCI-H460 lung
CAKI-1 renal = system: CAKI-1 renal
RPMI-8226 leukemia = system: RPMI-8226 leukemia
NCI-H23 lung = system: NCI-H23 lung
KM12 colon = system: KM12 colon
UO-31 renal = system: UO-31 renal
HCT-116 colon = system: HCT-116 colon
MDA-MB-435 = system: MDA-MB-435
HS 578T breast = system: HS 578T breast
SK-MEL-28 melanoma = system: SK-MEL-28 melanoma
HCT-15 colon = system: HCT-15 colon
TK-10 renal = system: TK-10 renal
NCI-H226 lung = system: NCI-H226 lung
UACC-62 melanoma = system: UACC-62 melanoma
PC-3 prostate = system: PC-3 prostate
NCI/ADR-RES ovarian = system: NCI/ADR-RES ovarian
BT-549 breast = system: BT-549 breast
OVCAR-5 ovarian = system: OVCAR-5 ovarian
T-47D breast = system: T-47D breast
OVCAR-8 ovarian = system: OVCAR-8 ovarian
UACC-257 melanoma = system: UACC-257 melanoma
OVCAR-4 ovarian = system: OVCAR-4 ovarian
SNB-19 CNS = system: SNB-19 CNS
OVCAR-3 ovarian = system: OVCAR-3 ovarian
SN12C renal = system: SN12C renal
DU-145 prostate = system: DU-145 prostate
786-0 renal = system: 786-0 renal
NCI-H522 lung = system: NCI-H522 lung
MALME-3M melanoma = system: MALME-3M melanoma
IGROV1 ovarian = system: IGROV1 ovarian
MDA-MB-231 breast = system: MDA-MB-231 breast
HL-60(TB) leukemia = system: HL-60(TB) leukemia
SF-295 CNS = system: SF-295 CNS
SW-620 colon = system: SW-620 colon
U251 CNS = system: U251 CNS
SF-539 CNS = system: SF-539 CNS
CCRF-CEM leukemia = system: CCRF-CEM leukemia
MOLT-4 leukemia = system: MOLT-4 leukemia
ACHN renal = system: ACHN renal
HOP-62 NSCLC = system: HOP-62 NSCLC
SK-MEL-2 melanoma = system: SK-MEL-2 melanoma
HCC-2998 colon = system: HCC-2998 colon
M14 melanoma = system: M14 melanoma
SNB-75 CNS = system: SNB-75 CNS
A549 NSCLC = system: A549 NSCLC
K-562 leukemia = system: K-562 leukemia
RXF 393 renal = system: RXF 393 renal

Cn1cc(C2=C(n3ccc4ccccc43)C(=O)NC2=O)c2ccccc21
GI50 (A498 renal): > 25 µM
TGI (A498 renal): > 25 µM
GI50 (SK-OV-3 ovarian): > 25 µM
TGI (SK-OV-3 ovarian): > 25 µM
GI50 (MCF7 breast): > 25 µM
TGI (MCF7 breast): > 25 µM
GI50 (LOX IMVI melanoma): > 25 µM
TGI (LOX IMVI melanoma): > 25 µM
GI50 (SK-MEL-5 melanoma): > 25 µM
TGI (SK-MEL-5 melanoma): > 25 µM
GI50 (COLO 205 colon): > 25 µM
TGI (COLO 205 colon): > 25 µM
GI50 (HT29 colon): > 25 µM
TGI (HT29 colon): > 25 µM
GI50 (SF-268 CNS): > 25 µM
TGI (SF-268 CNS): > 25 µM
GI50 (NCI-H460 lung): > 25 µM
TGI (NCI-H460 lung): > 25 µM
GI50 (CAKI-1 renal): > 25 µM
TGI (CAKI-1 renal): > 25 µM
GI50 (RPMI-8226 leukemia): > 25 µM
TGI (RPMI-8226 leukemia): > 25 µM
GI50 (NCI-H23 lung): > 25 µM
TGI (NCI-H23 lung): > 25 µM
GI50 (KM12 colon): > 25 µM
TGI (KM12 colon): > 25 µM
GI50 (UO-31 renal): > 21.6 µM
TGI (UO-31 renal): > 25 µM
GI50 (HCT-116 colon): > 25 µM
TGI (HCT-116 colon): > 25 µM
GI50 (MDA-MB-435): > 25 µM
TGI (MDA-MB-435): > 25 µM
GI50 (HS 578T breast): > 25 µM
TGI (HS 578T breast): > 25 µM
GI50 (SK-MEL-28 melanoma): > 25 µM
TGI (SK-MEL-28 melanoma): > 25 µM
GI50 (HCT-15 colon): > 25 µM
TGI (HCT-15 colon): > 25 µM
GI50 (TK-10 renal): > 25 µM
TGI (TK-10 renal): > 25 µM
GI50 (NCI-H226 lung): > 25 µM
TGI (NCI-H226 lung): > 25 µM
GI50 (UACC-62 melanoma): > 25 µM
TGI (UACC-62 melanoma): > 25 µM
GI50 (PC-3 prostate): > 25 µM
TGI (PC-3 prostate): > 25 µM
GI50 (NCI/ADR-RES ovarian): > 25 µM
TGI (NCI/ADR-RES ovarian): > 25 µM
GI50 (BT-549 breast): > 25 µM
TGI (BT-549 breast): > 25 µM
GI50 (OVCAR-5 ovarian): > 25 µM
TGI (OVCAR-5 ovarian): > 25 µM
GI50 (T-47D breast): > 25 µM
TGI (T-47D breast): > 25 µM
GI50 (OVCAR-8 ovarian): > 25 µM
TGI (OVCAR-8 ovarian): > 25 µM
GI50 (UACC-257 melanoma): > 25 µM
TGI (UACC-257 melanoma): > 25 µM
GI50 (OVCAR-4 ovarian): > 25 µM
TGI (OVCAR-4 ovarian): > 25 µM
GI50 (SNB-19 CNS): > 25 µM
TGI (SNB-19 CNS): > 25 µM
GI50 (OVCAR-3 ovarian): > 25 µM
TGI (OVCAR-3 ovarian): > 25 µM
GI50 (SN12C renal): > 25 µM
TGI (SN12C renal): > 25 µM
GI50 (DU-145 prostate): > 25 µM
TGI (DU-145 prostate): > 25 µM
GI50 (786-0 renal): > 25 µM
TGI (786-0 renal): > 25 µM
GI50 (NCI-H522 lung): > 25 µM
TGI (NCI-H522 lung): > 25 µM
GI50 (MALME-3M melanoma): > 25 µM
TGI (MALME-3M melanoma): > 25 µM
GI50 (IGROV1 ovarian): > 25 µM
TGI (IGROV1 ovarian): > 25 µM
GI50 (MDA-MB-231 breast): > 25 µM
TGI (MDA-MB-231 breast): > 25 µM
GI50 (HL-60(TB) leukemia): > 25 µM
TGI (HL-60(TB) leukemia): > 25 µM
GI50 (SF-295 CNS): > 25 µM
TGI (SF-295 CNS): > 25 µM
GI50 (SW-620 colon): > 25 µM
TGI (SW-620 colon): > 25 µM
GI50 (U251 CNS): > 25 µM
TGI (U251 CNS): > 25 µM
GI50 (SF-539 CNS): > 25 µM
TGI (SF-539 CNS): > 25 µM
GI50 (CCRF-CEM leukemia): > 25 µM
TGI (CCRF-CEM leukemia): > 25 µM
GI50 (MOLT-4 leukemia): > 25 µM
TGI (MOLT-4 leukemia): > 25 µM
GI50 (ACHN renal): > 25 µM
TGI (ACHN renal): > 25 µM
GI50 (HOP-62 NSCLC): > 25 µM
TGI (HOP-62 NSCLC): > 25 µM
GI50 (SK-MEL-2 melanoma): > 25 µM
TGI (SK-MEL-2 melanoma): > 25 µM
GI50 (HCC-2998 colon): > 25 µM
TGI (HCC-2998 colon): > 25 µM
GI50 (M14 melanoma): > 25 µM
TGI (M14 melanoma): > 25 µM
GI50 (SNB-75 CNS): > 9.34 µM
TGI (SNB-75 CNS): > 25 µM
GI50 (A549 NSCLC): > 25 µM
TGI (A549 NSCLC): > 25 µM
GI50 (K-562 leukemia): > 25 µM
TGI (K-562 leukemia): > 25 µM
GI50 (RXF 393 renal): > 25 µM
TGI (RXF 393 renal): > 25 µM
